# Publication PMC10165273, “Itch receptor MRGPRX4 interacts with the receptor activity–modifying proteins” (The Journal of Biological Chemistry, 2023)
# Values joined by “and” are separate entries in the source; they are usually repeats but may differ in a detail not shown here. Equal values may be shown once. Read-outs that look alike come from different tables or passages of the source.
# Legend:
# [1] = molecular target: T1, MRGPRX4 + RAMP3 (Homo sapiens, UniProt Q96LA9); assay: IP1 accumulation, MRGPRX4 coexpressed with RAMP3; type: cell-based; parameters: key to IP1 Basal / response to agonist, X4:ramp3.I:0.25 / response to agonist, X4:ramp3.I:0.5 / response to agonist, X4:ramp3.I:1: % IP1; unstimulated mock = 0%, fully stimulated MRGPRX4 = 100%; conditions: for activation at 100 µM / activation at 20 µM / activation at 4 µM / activation at 0.8 µM / activation at […] / activation at 0.032 µM: 2 h, Fig S3f, read-out: IP1 accumulation; for activation at 100 µM: log [DCA] (M) -4; for activation at 20 µM: log [DCA] (M) -4.69897; for activation at 4 µM: log [DCA] (M) -5.39794; for activation at 0.8 µM: log [DCA] (M) -6.09691; for activation at […]: log [DCA] (M) -6.79588; for activation at 0.032 µM: log [DCA] (M) -7.49485
# T1 construct: expressed in transfected cells; host or cells: HEK293T
# Description: (§1) HEK293T cells were transfected with 1 pg/cell of MRGPRX4 DNA, and the amount of DNA was kept constant at 2 pg/cell with pcDNA3.1(+) empty vector, unless otherwise specified. Twenty four hours after transfection, IP1 assay was performed as previously described ([51]). When applicable, cells were treated with 1 μM YM254890 (YM) or different concentrations of U73122 for 1 h prior to addition of agonist or buffer. After incubation for 2 h, HTRF reagents and IP1 calibration standards were added and incubated for 2 h in the dark at room temperature. Time-resolved fluorescence signals were read on the BioTek Synergy NEO-TRF Hybrid multi-mode reader (BioTek Instruments). All data were carried out in three independent experiments with three technical replicate each.
# For RAMP DNA titration assay, HEK293T cells were cotransfected with a constant amount of 1 pg/cell of FLAG-MRGPRX4-GFP10-1D4 to which a serial dilution of 1, 0.75, 0.5, 0.25, or 0 pg/cell of each HA-RAMP-OLLAS was added. For a homogenous transfection of MRGPRX4, a master mix of MRGPRX4 DNA was made prior to addition of the RAMP DNA. […]
# (§2) Data reduction, standard calibration, and transformation of HTRF data were performed as previously described ([51]). Normalized IP1 values were calculated relative to the unstimulated mock-transfected cells (set to 0%) and fully stimulated MRGPRX4 (alone if applicable) (set to 100%).
# [2] = system: mock-transfected HEK293T cells; assay: IP1 accumulation, mock-transfected cells; type: cell-based, human; parameters: IP1 Basal / IP1 span / IP1 Emax / IP1 accumulation, dose-response (Figure 1a) / IP1 accumulation with YM (Figure 1c) / IP1 accumulation: unit not given here; conditions: for IP1 accumulation, dose-response (Figure 1a): pcDNA (mock), individual replicates; for IP1 accumulation: mock, Fig S3d-f
# Description: as §1
# Validation of CALCRL constructs was assayed by cotransfecting HEK293T cells with different tagged versions of CALCRL alone or with each RAMP and with the promiscuous Gqs5 Gq chimera protein, at a respective DNA ratio of 1:1:0.5. Gqs5 is an engineered Gq protein containing the last five amino acid residues of Gs, which allows Gs-coupled GPCRs to signal through Gq downstream signaling pathways ([55]). The homogenous transfection method described above was used for all DNA mixes. CALCRL:RAMP2:Gqs5-transfected cells served as positive control for RAMP functionality.
# as §2
# [3] = molecular target: T1, MRGPRX4 + RAMP3; assay: IP1 accumulation, MRGPRX4 coexpressed with RAMP3; type: cell-based; parameters: key: % IP1; unstimulated mock = 0%, fully stimulated MRGPRX4 = 100%; conditions: Figure 4c-f; agonist 100µM; X4:ramp3 1:2; MRGPRX4 = 100
# [4] = MRGPRX4 + RAMP3 0.25 pg (Fig. S3), normalized per agonist
# [5] = MRGPRX4 + RAMP3 0.5 pg (Fig. S3), normalized per agonist
# [6] = MRGPRX4 + RAMP3 1 pg (Fig. S3), normalized per agonist
# [7] = MRGPRX4 + RAMP3 2 pg (Fig. S3), normalized per agonist
# [8] = Mock, MRGPRX4 construct comparison (Fig. S4B,C-F)
# T1 sequence (Q96LA9 whole entry): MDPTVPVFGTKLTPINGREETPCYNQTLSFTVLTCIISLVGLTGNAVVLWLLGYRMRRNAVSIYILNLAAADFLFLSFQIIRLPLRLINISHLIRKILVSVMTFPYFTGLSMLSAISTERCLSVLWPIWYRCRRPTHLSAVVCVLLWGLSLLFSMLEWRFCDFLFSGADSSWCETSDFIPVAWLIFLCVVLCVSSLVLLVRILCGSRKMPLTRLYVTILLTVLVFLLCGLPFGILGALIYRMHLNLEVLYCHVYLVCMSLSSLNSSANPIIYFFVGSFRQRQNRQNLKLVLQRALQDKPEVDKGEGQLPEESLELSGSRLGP
structure (smiles),measurement,setting,value
"C[C@H](CCC(=O)O)[C@H]1CC[C@H]2[C@@H]3CC[C@@H]4C[C@H](O)CC[C@]4(C)[C@H]3C[C@H](O)[C@]12C [DCA, deoxycholic acid]",activation at 100 µM,[1]; ratio MRGPRX4:RAMP3 1:0.5,90.4%
same,activation at 20 µM,[1]; ratio MRGPRX4:RAMP3 1:0.5,53.8%
same,activation at 4 µM,[1]; ratio MRGPRX4:RAMP3 1:0.5,33.6%
same,activation at 0.8 µM,[1]; ratio MRGPRX4:RAMP3 1:0.5,22%
same,activation at […],[1]; ratio MRGPRX4:RAMP3 1:0.5,21.2%
same,activation at 0.032 µM,[1]; ratio MRGPRX4:RAMP3 1:0.5,21.7%
same,activation at 100 µM,[1]; ratio MRGPRX4:RAMP3 1:1,97.9%
same,activation at 20 µM,[1]; ratio MRGPRX4:RAMP3 1:1,49.2%
same,activation at 4 µM,[1]; ratio MRGPRX4:RAMP3 1:1,28.3%
same,activation at 0.8 µM,[1]; ratio MRGPRX4:RAMP3 1:1,19.5%
same,activation at […],[1]; ratio MRGPRX4:RAMP3 1:1,19.6%
same,activation at 0.032 µM,[1]; ratio MRGPRX4:RAMP3 1:1,18.9%
same,activation at 20 µM,[1]; ratio MRGPRX4:RAMP3 1:2,48.1%
same,activation at 4 µM,[1]; ratio MRGPRX4:RAMP3 1:2,23.1%
same,activation at […],[1]; ratio MRGPRX4:RAMP3 1:2,16.8%
same,activation at 0.032 µM,[1]; ratio MRGPRX4:RAMP3 1:2,15.3%
same,Emax,"[1]; Figure 4a bottom, DNA ratio MRGPRX4:RAMP3 1:0.75, MRGPRX4 alone = 100, read-out: efficacy",74.9%
same,"response to agonist, X4:ramp3.I:0.25","[1]; Figure 4c-f, agonist 100µM, X4:ramp3 1:0.25, MRGPRX4 = 100",83.1455 and 78.9266
same,"response to agonist, X4:ramp3.I:0.5","[1]; Figure 4c-f, agonist 100µM, X4:ramp3 1:0.5, MRGPRX4 = 100",72.4625 and 76.3406
same,"response to agonist, X4:ramp3.I:1","[1]; Figure 4c-f, agonist 100µM, X4:ramp3 1:1, MRGPRX4 = 100",72.2618 and 56.5732
same,IP1 Basal,[1]; [4],26.80
same,IP1 span (top minus basal of the concentration-response fit),[1]; [4],84.2%
same,Emax,"[1]; MRGPRX4 + RAMP3 0.25 pg (Fig. S3), normalized per agonist, read-out: IP1 Emax",111%
same,IP1 Basal,[1]; [5],21.60
same,IP1 span (top minus basal of the concentration-response fit),[1]; [5],78.8%
same,Emax,"[1]; MRGPRX4 + RAMP3 0.5 pg (Fig. S3), normalized per agonist, read-out: IP1 Emax",100%
same,IP1 Basal,[1]; [6],23.28
same,IP1 span (top minus basal of the concentration-response fit),[1]; [6],92.1%
same,Emax,"[1]; MRGPRX4 + RAMP3 1 pg (Fig. S3), normalized per agonist, read-out: IP1 Emax",115%
same,IP1 Basal,[1]; [7],14.52
same,IP1 span (top minus basal of the concentration-response fit),[1]; [7],85.8%
same,Emax,"[1]; MRGPRX4 + RAMP3 2 pg (Fig. S3), normalized per agonist, read-out: IP1 Emax",100%
same,Emax,"[2]; Homo sapiens, HEK-293T, Mock, MRGPRX4 construct comparison (Fig. S4B,C-F)",0.236%
same,IP1 Basal,[2]; [8],2.330
same,IP1 span,[2]; [8],-2.094
same,"IP1 accumulation, dose-response (Figure 1a)",[2]; log [agonist] (M) -4,0.2103 and 0.3669 and 0.293 and -0.07837 and 0.1649 and -0.08879 and 0.2113 and -0.2385 and -0.6593 and -0.4375 and -0.5166 and -0.9554
same,"IP1 accumulation, dose-response (Figure 1a)",[2]; log [agonist] (M) -4.95424,0.553 and 0.2642 and 0.3806 and 0.3517 and 0.05455 and 0.247 and 0.3525 and -0.3352 and -0.4263 and -0.5038 and 0.5136 and -0.7508
same,"IP1 accumulation, dose-response (Figure 1a)",[2]; log [agonist] (M) -5.90849,0.1227 and 0.5487 and 0.6873 and 0.2386 and 0.02519 and 0.3705 and 0.5521 and -0.1483 and -0.4243 and -0.2808 and 0.06832 and -0.3071
same,"IP1 accumulation, dose-response (Figure 1a)",[2]; log [agonist] (M) -6.86273,0.3536 and 0.9227 and 0.8938 and 0.5392 and 0.2564 and 0.9514 and 0.9872 and 0.3929 and 0.5666 and 0.2655 and 0.4716 and 0.3728
same,IP1 accumulation,[2]; log [DCA] (M) -4,1.182 and 0.9551 and 1.627
same,IP1 accumulation,[2]; log [DCA] (M) -5.39794,0.3631 and 0.268 and 0.3023
same,"response to agonist, X4:ramp3.I:2",[3],55.7055 and 63.4334
